In publication PMC7259638, “Characterization of the intestinal absorption of morroniside from Cornus officinalis Sieb. et Zucc via a Caco-2 cell monolayer model” (PLoS ONE, 2020):
Like-named read-outs stand apart in the source and are kept apart here.

Columns and labels:
Format in all cases: in vitro ADME, human
Caco-2 cell monolayers = test: Effects of influx/efflux transporter inhibitors and CO on morroniside transport in Caco-2 cell monolayers; conditions: for PappAB (mean): AP to BL; for PappBA (mean): BL to AP; for PappAB / PappBA: pH 7.4, 37 °C
Experimental: (§1) An initial stock solution of morroniside in methanol was prepared. The stock solution was then diluted with HBSS (pH = 7.4) and the final concentration of methanol in HBSS remained at 0.5%. […] Caco-2 cells were seeded at a density of 5 × 10^4 cells/cm^2 in a 12-well plate. The transepithelial electrical resistance (TEER) value was measured with a Millipore ERS voltameter (Burlington, MA, USA) in order to evaluate and determine monolayer integrity. The monolayers were ready for experiments 19 to 22 days after seeding.
(§2) During incubation, the culture medium was refreshed every other day. The culture medium was discarded, and 500 μL of HBSS was added to each well and incubated for 20 min at 37 °C. Afterward, each well was rinsed two times with HBSS at 37 °C. Three concentrations of morroniside (5, 25 and 100 μM) were added to either the apical (AP, 0.5 mL) or basolateral side (BL, 1.5 mL), wheras the receiving chamber contained the corresponding volume of blank HBSS medium (pH = 7.4). Incubation was performed at 37 °C for 180 min, with shaking at 50 rpm. To assess drug transport from the AP to BL side, after incubation for 5, 15, 30, 45, 60, 90, 120 or 180 min, 50 μL of the solution from the BL or AP side was collected, and replaced with an equal volume of HBSS. To study the effect of pH on morroniside (5, 25 and 100 μM) transport, the experiments were performed in HBSS, which was adjusted to pH 6.0 or pH 7.4 on the AP side depending on the experiment, and to pH 7.4 on the BL side at 37 °C.
(§3) Efflux and influx transporters were investigated for their effects on the transport flux of morroniside. Several ATP-binding cassette transporter inhibitors, including one p-glycoprotein (P-gp) inhibitor (100μM verapamil); one multidrug resistance- related protein (MRP) inhibitor (100 μM, MK571), one multidrug resistance- related protein 3 (MRP3, the main BL MRP) inhibitor ([…]) and one multidrug resistance- related protein 2 (MRP2, the main AP MRP) inhibitor (200μM indomethacin); and one breast cancer resistance protein (BCRP) inhibitor (25μM apigenin) were used to determine the transporters involved in the efflux transport of morroniside. The inhibition of the influx transport of morroniside transport across the Caco-2 cell monolayer was investigated by the addition of 50 μM sodium vanadate and cimetidine to evaluate the selectivity of Na/K-ATPase. The pH and temperature conditions of this assay were 7.4 and 37 °C, respectively.
(§4) UPLC-MS/MS data acquisition was performed using Analyst 1.5.2 and MultiQuant 2.1.1 software (Applied Biosystems). All data are shown as the mean ± standard deviation, n = 3. The data were analyzed using SPSS 20.0. In the Caco-2 cell model, the rate of transport was obtained from the amount transported versus the time curve using linear regression. The permeability coefficient of each compound was calculated using the following equation: Papp = (dQ/dt)/(A·C0).
(§5) where, dQ/dt is the rate of drug transport, C0 is the initial concentration of the compound in the donor chamber and A represents the surface area of the cell monolayer. The efflux ratio P was determined by calculating the ratio of Papp in the secretory (BA) direction divided by that in the absorptive (AB) direction, according to the following equation: P=PappBA/PappAB

MRP = test: as above; conditions: human, Caco-2, pH 7.4, with MK571 100 μM, 25 μM morroniside
Experimental: as §1, §2, §3, §4, §5

P-gp = test: as above; conditions: human, Caco-2, pH 7.4, with verapamil 100 μM, 25 μM morroniside; with verapamil 100 μM (P-gp inhibitor)
Experimental: as §1, §2, §3, §4, §5

OATs = test: as above; conditions: human, Caco-2, pH 7.4, with cimetidine 50 μM, with 50 μM cimetidine (OATs); read-out: P (efflux ratio PappBA/PappAB)
Experimental: as §1, §2, §3, §4, §5

MRP3 = test: as above; conditions: human, 25 μM morroniside
Experimental: as §1, §2, §3, §4, §5

BCRP = test: as above; conditions: human, 25 μM morroniside
Experimental: as §1, §2, §3, §4, §5

MRP2 = test: as above; conditions: human, 25 μM morroniside
Experimental: as §1, §2, §3, §4, §5

[1] = as above; conditions: human; for efflux ratio at 180 min, 25 μM: read-out: Efflux ratio P
Experimental: as §1, §2, §3, §4, §5

[2] = test system: Na+/K+ pump (Na/K-ATPase); test: as above; conditions: human, Caco-2, pH 7.4, with sodium vanadate 50 μM, with 50 μM sodium vanadate (Na+/K+ pump); read-out: P (efflux ratio PappBA/PappAB)
Experimental: as §1, §2, §3, §4, §5

[3] = 25 μM morroniside, with verapamil 100 μM
[4] = after 0.63 mg/mL CO (containing 25 μM morroniside) was added
[5] = with 50 μM sodium vanadate (Na+/K+ pump)

PappAB (mean) (Caco-2 cell monolayers; 25 μM morroniside, Control): 1.9 ×10⁻⁶ cm/s | PappAB (mean) (Caco-2 cell monolayers; 25 μM morroniside, with apigenin 25 μM): 6.12 ×10⁻⁶ cm/s | PappAB (mean) (Caco-2 cell monolayers; [3]): 1.84 ×10⁻⁶ cm/s | PappBA (mean) (Caco-2 cell monolayers; 25 μM morroniside, Control): 3.06 ×10⁻⁶ cm/s | PappBA (mean) (Caco-2 cell monolayers; 25 μM morroniside, with benzbromarone 50 μM): 3.04 ×10⁻⁶ cm/s | PappBA (mean) (Caco-2 cell monolayers; [3]): 2.93 ×10⁻⁶ cm/s | change of PappAB vs control (Caco-2 cell monolayers; 25 μM morroniside, after addition of apigenin (25 μM), p < 0.05): increased significantly | decrease in the efflux ratio (Caco-2 cell monolayers; 25 μM morroniside, after addition of apigenin (25 μM), vs control): 72.05% | PappAB (mean) (Caco-2 cell monolayers; morroniside given as CO 0.63 mg/mL (containing 25 μM morroniside), in 1e-6 cm/s): 4.284 | PappBA (mean) (Caco-2 cell monolayers; morroniside given as CO 0.63 mg/mL (containing 25 μM morroniside)): 2.11 ×10⁻⁶ cm/s | PappAB (Caco-2 cell monolayers; Control (no inhibitor), influx transporter experiment): 1.90±0.5 ×10^-6cm/s | change of PappAB vs control (Caco-2 cell monolayers; [4]): increased significantly | change of PappBA vs control (Caco-2 cell monolayers; [4]): not significantly different | change of PappAB vs control (Caco-2 cell monolayers; after MK 571 was added): increased | change of PappBA vs control (Caco-2 cell monolayers; after MK 571 was added): no effect | change of AP to BL flux (PappAB) vs control (Caco-2 cell monolayers; after indomethacin was added, p < 0.001): significant increase | change of PappAB and PappBA vs control (Caco-2 cell monolayers; before and after addition of verapamil): did not change significantly | change of PappAB or PappBA vs control (Caco-2 cell monolayers; cotreatment with 200 μM benzbromarone): did not alter | BCRP substrate status (Caco-2 cell monolayers; from effect of apigenin (25 μM, BCRP inhibitor)): substrate of BCRP | MRP2 substrate status (Caco-2 cell monolayers; from effect of indomethacin (MRP2 inhibitor) on AP to BL flux): substrate of MRP2 | P-gp involvement in transport (Caco-2 cell monolayers; from effect of verapamil (P-gp inhibitor)): might not be involved | PappAB (Caco-2 cell monolayers; with 50 μM cimetidine (OATs)): 1.82±0.5 ×10^-6cm/s | PappBA (Caco-2 cell monolayers; with 50 μM cimetidine (OATs)): 3.1±0.7 ×10^-6cm/s | PappAB (Caco-2 cell monolayers; [5]): 1.89±0.4 ×10^-6cm/s | PappBA (Caco-2 cell monolayers; [5]): 3.11±0.7 ×10^-6cm/s | efflux ratio at 180 min, 25 μM (MRP; with MK 571 100 μM (MRP inhibitor), read-out: Efflux ratio P): 0.4 | Papp A→B at 180 min, 25 μM (MRP; AP to BL, with MK 571 100 μM, read-out: PappAB (mean)): 7.55 ×10⁻⁶ cm/s | Papp B→A at 180 min, 25 μM (MRP; BL to AP, with MK 571 100 μM, read-out: PappBA (mean)): 3.01 ×10⁻⁶ cm/s | efflux ratio at 180 min, 25 μM (P-gp): 1.59 | efflux ratio at 180 min (OATs): 1.7 | efflux ratio at 180 min, 25 μM (MRP3; Caco-2, pH 7.4, with benzbromarone 50 μM, with benzbromarone 50 μM (MRP3 inhibitor), read-out: Efflux ratio P): 1.72 | Papp A→B at 180 min, 25 μM (MRP3; Caco-2, pH 7.4, AP to BL, with benzbromarone 50 μM, read-out: PappAB (mean)): 1.77 ×10⁻⁶ cm/s | efflux ratio at 180 min, 25 μM (BCRP; Caco-2, pH 7.4, with apigenin 25 μM, with apigenin 25 μM (BCRP inhibitor), read-out: Efflux ratio P): 0.45 | Papp B→A at 180 min, 25 μM (BCRP; Caco-2, pH 7.4, BL to AP, with apigenin 25 μM, read-out: PappBA (mean)): 2.78 ×10⁻⁶ cm/s | efflux ratio at 180 min, 25 μM (MRP2; Caco-2, pH 7.4, with indomethacin 200 μM, with indomethacin 200 μM (MRP2 inhibitor), read-out: Efflux ratio P): 0.26 | Papp A→B at 180 min, 25 μM (MRP2; Caco-2, pH 7.4, AP to BL, with indomethacin 200 μM, read-out: PappAB (mean)): 12.8 ×10⁻⁶ cm/s | Papp B→A at 180 min, 25 μM (MRP2; Caco-2, pH 7.4, BL to AP, with indomethacin 200 μM, read-out: PappBA (mean)): 3.3 ×10⁻⁶ cm/s | efflux ratio at 180 min, 25 μM ([1]; Caco-2, pH 7.4, 25 μM morroniside, Control (no inhibitor)): 1.61 | efflux ratio at 180 min ([1]; Caco-2, pH 7.4, Control (no inhibitor), influx transporter experiment, read-out: P (efflux ratio PappBA/PappAB)): 1.6 | efflux ratio at 180 min, 25 μM ([1]; Caco-2, pH 7.4, morroniside given as CO 0.63 mg/mL (containing 25 μM morroniside)): 0.49 | Papp B→A at 180 min ([1]; Caco-2, Control (no inhibitor), influx transporter experiment, pH 7.4, 37 °C): 3.06 ± 0.6 ×10⁻⁶ cm/s | efflux ratio at 180 min [2]: 1.65
SMILES: COC(=O)C1=CO[C@@H](O[C@@H]2O[C@H](CO)[C@@H](O)[C@H](O)[C@H]2O)[C@@H]2[C@H](C)O[C@@H](O)C[C@H]12 [morroniside, Morroniside]
change of morroniside transport vs control (Caco-2 cell monolayers; with 50 μM cimetidine): did not significantly increase or decrease | change of morroniside transport vs control (Caco-2 cell monolayers; with 50 μM sodium vanadate): did not significantly increase or decrease
